According to US7968577B2 (Bristol-Myers Squibb Company, priority 2006, dated 2011):

The compounds below were run against T1, human glucocorticoid receptor (Homo sapiens, UniProt P04150) (assay: Glucocorticoid Receptor Binding Assay (I), fluorescence polarization competitor kit (Fluormone GS Red)). Conditions: GR Binding Assay (I).
T1 construct: purified human recombinant full-length glucocorticoid receptor; purchased Invitrogen Part #2893
T1 sequence (P04150 1-777): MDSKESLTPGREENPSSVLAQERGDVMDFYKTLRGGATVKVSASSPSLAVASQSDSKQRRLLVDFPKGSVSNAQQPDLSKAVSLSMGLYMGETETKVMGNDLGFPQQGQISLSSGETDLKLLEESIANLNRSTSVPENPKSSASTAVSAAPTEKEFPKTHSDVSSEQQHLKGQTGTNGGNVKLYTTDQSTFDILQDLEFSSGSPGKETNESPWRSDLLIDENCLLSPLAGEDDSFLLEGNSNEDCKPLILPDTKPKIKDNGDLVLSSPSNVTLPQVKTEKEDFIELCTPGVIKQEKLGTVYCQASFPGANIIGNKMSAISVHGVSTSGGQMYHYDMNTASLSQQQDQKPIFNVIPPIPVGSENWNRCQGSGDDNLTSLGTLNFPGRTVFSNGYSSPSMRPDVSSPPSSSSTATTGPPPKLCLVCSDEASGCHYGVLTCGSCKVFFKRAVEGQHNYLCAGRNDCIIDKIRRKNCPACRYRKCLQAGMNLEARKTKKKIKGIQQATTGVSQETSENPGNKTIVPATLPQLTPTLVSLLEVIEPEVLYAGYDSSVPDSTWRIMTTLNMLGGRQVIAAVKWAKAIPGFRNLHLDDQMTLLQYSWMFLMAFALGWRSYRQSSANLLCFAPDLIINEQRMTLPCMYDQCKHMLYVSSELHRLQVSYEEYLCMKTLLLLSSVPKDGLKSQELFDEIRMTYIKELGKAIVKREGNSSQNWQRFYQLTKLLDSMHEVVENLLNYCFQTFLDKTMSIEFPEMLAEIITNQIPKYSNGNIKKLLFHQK
Protocol: Glucocorticoid Receptor Binding Assay (I)^a
In order to assess the affinity of test compounds for the human glucocorticoid receptor, a commercially available kit was used (Glucocorticoid Receptor Competitor Assay Kit, Invitrogen Part #2893). Briefly, purified human recombinant full-length glucocorticoid receptor (2 nM) was mixed with fluorescently labeled glucocorticoid (1 nM Fluormone GS Red) in the presence or absence of test compound. After two hour incubation at room temperature in the dark, the fluorescence polarization (FP) of the samples was measured. […] Test compounds were analyzed in the concentration range from 8.5 E-05 μM to 5 μM.

Row | Ki [nM] | Compound
1 | 26.5 | CCCCc1ccc(-c2ccc(C(c3ccccc3)C(C)(C)C(=O)Nc3nncs3)cc2)cc1 (stereo not drawn) [Example 418, 3-(4′-butyl-4-biphenylyl)-2,2-dimethyl-3-phenyl-N-1,3,4-thiadiazol-2-ylpropanamide]
2 | 5.53 | CCOc1ccc(-c2ccc(C(c3ccccc3)C(C)(C)C(=O)Nc3nncs3)cc2)cc1 (stereo not drawn) [Example 419, 3-(4′-ethoxy-4-biphenylyl)-2,2-dimethyl-3-phenyl-N-1,3,4-thiadiazol-2-ylpropanamide]
3 | 13.3 | COc1ccc(-c2ccc(C(c3ccccc3)C(C)(C)C(=O)Nc3nncs3)cc2)cc1F (stereo not drawn) [Example 420, 3-(3′-fluoro-4′-methoxy-4-biphenylyl)-2,2-dimethyl-3-phenyl-N-1,3,4-thiadiazol-2-ylpropanamide]
4 | 5.72 | CC(C)(C(=O)Nc1nncs1)C(c1ccccc1)c1ccc(-c2ccc(CO)cc2)cc1 (stereo not drawn) [Example 421, 3-(4′-(hydroxymethyl)-4-biphenylyl)-2,2-dimethyl-3-phenyl-N-1,3,4-thiadiazol-2-ylpropanamide]
5 | 3.68 | CN1CCN(C(=O)c2ccc(-c3ccc(C(c4ccccc4)C(C)(C)C(=O)Nc4nncs4)cc3)cc2)CC1 (stereo not drawn) [Example 426, 2,2-dimethyl-3-(4′-((4-methyl-1-piperazinyl)carbonyl)-4-biphenylyl)-3-phenyl-N-1,3,4-thiadiazol-2-ylpropanamide]
6 | 9.28 | CC(C)CC(c1ccc(-c2ccc(C(=O)N3CCOCC3)cc2)cc1)C(C)(C)C(=O)Nc1nncs1 (stereo not drawn) [Example 427, 2,2,5-trimethyl-3-(4′-(4-morpholinylcarbonyl)-4-biphenylyl)-N-1,3,4-thiadiazol-2-ylhexanamide]
7 | 17.9 | COCc1ccc(-c2ccc(C(CC(C)C)C(C)(C)C(=O)Nc3nncs3)cc2)cc1 (stereo not drawn) [Example 428, 3-(4′-(methoxymethyl)-4-biphenylyl)-2,2,5-trimethyl-N-1,3,4-thiadiazol-2-ylhexanamide]
8 | 31 | CC(C)CC(c1ccc(-c2ccc(C(=O)NC3CC3)cc2)cc1)C(C)(C)C(=O)Nc1nncs1 (stereo not drawn) [Example 429, N-cyclopropyl-4′-(1-(1,1-dimethyl-2-oxo-2-(1,3,4-thiadiazol-2-ylamino)ethyl)-3-methylbutyl)-4-biphenylcarboxamide]
9 | 4.87 | CCOc1ccc(-c2ccc(C(CC(C)C)C(C)(C)C(=O)Nc3nncs3)cc2)cc1 (stereo not drawn) [Example 430, 3-(4′-ethoxy-4-biphenylyl)-2,2,5-trimethyl-N-1,3,4-thiadiazol-2-ylhexanamide]
10 | 52.8 | CC(C)CC(c1ccc(-c2ccccc2)cc1)C(C)(C)C(=O)Nc1nncs1 (stereo not drawn) [Example 431, 3-(4-biphenylyl)-2,2,5-trimethyl-N-1,3,4-thiadiazol-2-ylhexanamide]
11 | 184 | CC(C)CC(c1ccc(-c2ccc(Cl)cc2)cc1)C(C)(C)C(=O)Nc1nncs1 (stereo not drawn) [Example 432, 3-(4′-chloro-4-biphenylyl)-2,2,5-trimethyl-N-1,3,4-thiadiazol-2-ylhexanamide]
12 | 12.4 | CC(C)CC(c1ccc(-c2ccc(-c3ccccc3)cc2)cc1)C(C)(C)C(=O)Nc1nncs1 (stereo not drawn) [Example 433, 2,2,5-trimethyl-3-(1,1′:4′,1″-terphenyl-4-yl)-N-1,3,4-thiadiazol-2-ylhexanamide]
13 | 19.4 | CC(C)CC(c1ccc(-c2cccc(Cl)c2)cc1)C(C)(C)C(=O)Nc1nncs1 (stereo not drawn) [Example 434, 3-(3′-chloro-4-biphenylyl)-2,2,5-trimethyl-N-1,3,4-thiadiazol-2-ylhexanamide]
14 | 10.7 | COc1ccccc1-c1ccc(C(CC(C)C)C(C)(C)C(=O)Nc2nncs2)cc1 (stereo not drawn) [Example 435, 3-(2′-methoxy-4-biphenylyl)-2,2,5-trimethyl-N-1,3,4-thiadiazol-2-ylhexanamide]
15 | 105 | CC(C)CC(c1ccc(-c2ccc(O)cc2)cc1)C(C)(C)C(=O)Nc1nncs1 (stereo not drawn) [Example 436, 3-(4′-hydroxy-4-biphenylyl)-2,2,5-trimethyl-N-1,3,4-thiadiazol-2-ylhexanamide]
16 | 5.33 | CC(C)CC(c1ccc(-c2ccc(OC(F)(F)F)cc2)cc1)C(C)(C)C(=O)Nc1nncs1 (stereo not drawn) [Example 437, 2,2,5-trimethyl-N-1,3,4-thiadiazol-2-yl-3-(4′-(trifluoromethoxy)-4-biphenylyl)hexanamide]
17 | 12 | CC(=O)c1ccc(-c2ccc(C(CC(C)C)C(C)(C)C(=O)Nc3nncs3)cc2)cc1 (stereo not drawn) [Example 438, 3-(4′-acetyl-4-biphenylyl)-2,2,5-trimethyl-N-1,3,4-thiadiazol-2-ylhexanamide]
18 | 20.3 | CC(=O)c1cccc(-c2ccc(C(CC(C)C)C(C)(C)C(=O)Nc3nncs3)cc2)c1 (stereo not drawn) [Example 439, 3-(3′-acetyl-4-biphenylyl)-2,2,5-trimethyl-N-1,3,4-thiadiazol-2-ylhexanamide]
19 | 21.4 | CC(=O)Nc1ccc(-c2ccc(C(CC(C)C)C(C)(C)C(=O)Nc3nncs3)cc2)cc1 (stereo not drawn) [Example 440, 3-(4′-acetamido-4-biphenylyl)-2,2,5-trimethyl-N-1,3,4-thiadiazol-2-ylhexanamide]

Continued, compound first:

Row | Compound | Ki [nM]
20 | CC(C)CC(c1ccc(-c2ccc(C(=O)N(C)C)cc2)cc1)C(C)(C)C(=O)Nc1nccs1 (stereo not drawn) [Example 392, 4′-(1-(1,1-dimethyl-2-oxo-2-(1,3-thiazol-2-ylamino)ethyl)-3-methylbutyl)-N,N-dimethyl-4-biphenylcarboxamide] | 6.83
21 | CC(C)CC(c1ccc(-c2ccc(C(=O)N(C)C)cc2)cc1)C(C)(C)C(=O)Nc1nncs1 (stereo not drawn) [Example 393, 4′-(1-(1,1-dimethyl-2-oxo-2-(1,3,4-thiadiazol-2-ylamino)ethyl)-3-methylbutyl)-N,N-dimethyl-4-biphenylcarboxamide] | 3.68
22 | COc1ccc(-c2ccc(C(CC(C)C)C(C)(C)C(=O)Nc3nncs3)cc2)cc1 (stereo not drawn) [Example 394, 2,2,5-trimethyl-3-(4′-(methyloxy)-4-biphenylyl)-N-1,3,4-thiadiazol-2-ylhexanamide] | 9.28
23 | CC(C)Cc1ccc(-c2ccc(C(CC(C)C)C(C)(C)C(=O)Nc3nncs3)cc2)cc1 (stereo not drawn) [Example 397, 2,2,5-trimethyl-3-(4′-(2-methylpropyl)-4-biphenylyl)-N-1,3,4-thiadiazol-2-ylhexanamide] | 12.1
24 | CCCc1ccc(-c2ccc(C(CC(C)C)C(C)(C)C(=O)Nc3nncs3)cc2)cc1 (stereo not drawn) [Example 399, 2,2,5-trimethyl-3-(4′-propyl-4-biphenylyl)-N-1,3,4-thiadiazol-2-ylhexanamide] | 7.1
25 | CC(C)(C(=O)Nc1nncs1)C(c1ccccc1)c1ccc(-c2cccc(Cl)c2)cc1 (stereo not drawn) [Example 409, 3-(3′-chloro-4-biphenylyl)-2,2-dimethyl-3-phenyl-N-1,3,4-thiadiazol-2-ylpropanamide] | 25.4
26 | COc1cccc(-c2ccc(C(c3ccccc3)C(C)(C)C(=O)Nc3nncs3)cc2)c1 (stereo not drawn) [Example 410, 3-(3′-methoxy-4-biphenylyl)-2,2-dimethyl-3-phenyl-N-1,3,4-thiadiazol-2-ylpropanamide] | 4.45
27 | COc1ccccc1-c1ccc(C(c2ccccc2)C(C)(C)C(=O)Nc2nncs2)cc1 (stereo not drawn) [Example 411, 3-(2′-methoxy-4-biphenylyl)-2,2-dimethyl-3-phenyl-N-1,3,4-thiadiazol-2-ylpropanamide] | 154
28 | CC(C)(C(=O)Nc1nncs1)C(c1ccccc1)c1ccc(-c2ccc(O)cc2)cc1 (stereo not drawn) [Example 412, 3-(4′-hydroxy-4-biphenylyl)-2,2-dimethyl-3-phenyl-N-1,3,4-thiadiazol-2-ylpropanamide] | 16.5
29 | CC(=O)c1cccc(-c2ccc(C(c3ccccc3)C(C)(C)C(=O)Nc3nncs3)cc2)c1 (stereo not drawn) [Example 413, 3-(3′-acetyl-4-biphenylyl)-2,2-dimethyl-3-phenyl-N-1,3,4-thiadiazol-2-ylpropanamide] | 110
30 | CC(=O)Nc1ccc(-c2ccc(C(c3ccccc3)C(C)(C)C(=O)Nc3nncs3)cc2)cc1 (stereo not drawn) [Example 414, 3-(4′-acetamido-4-biphenylyl)-2,2-dimethyl-3-phenyl-N-1,3,4-thiadiazol-2-ylpropanamide] | 9.27
31 | CC(C)(C(=O)Nc1nncs1)C(c1ccccc1)c1ccc(-c2ccc3c(c2)CCO3)cc1 (stereo not drawn) [Example 415, 3-(4-(2,3-dihydro-1-benzofuran-5-yl)phenyl)-2,2-dimethyl-3-phenyl-N-1,3,4-thiadiazol-2-ylpropanamide] | 6.08
32 | CCCCOc1ccc(-c2ccc(C(c3ccccc3)C(C)(C)C(=O)Nc3nncs3)cc2)cc1 (stereo not drawn) [Example 416, 3-(4′-butoxy-4-biphenylyl)-2,2-dimethyl-3-phenyl-N-1,3,4-thiadiazol-2-ylpropanamide] | 42.5
33 | CC(C)(C)c1ccc(-c2ccc(C(c3ccccc3)C(C)(C)C(=O)Nc3nncs3)cc2)cc1 (stereo not drawn) [Example 417, 3-(4′-tert-butyl-4-biphenylyl)-2,2-dimethyl-3-phenyl-N-1,3,4-thiadiazol-2-ylpropanamide] | 52.9
